According to patent US6187906A, “Methods to improve neural outcome” (Aukland Uniservices Limited, priority 1998, dated 2001):

Assays:
[1] = [3H]-GPE quantitative receptor autoradiography in coronal brain sections; type: binding, rat; settings: 1 hour room temperature, right side neurons absent due to injury, little reaction
Protocol: A histological experiment to locate GPE binding sites within the rat brain employed quantitative receptor autoradiography to locate [3H]-GPE binding in coronal sections of the brain as previously described in Dragunow et al (1988, Brain Research 462, 252-257). Fresh frozen brain sections were cut on a cryostat and stored at -80 deg C. until use. Sections were then thawed and pre-incubated with 50 mM Tris HCl (pH 7.4) for 10 minutes at room temperature (250 μl per section). Sections were then dried and 250 μl per section of 5×10^5 counts/min^-1 of [3H]-GPE also made up in Tris HCl buffer (50 mM, pH 7.4) was added for 1 hour at room temperature. Sections were then washed two times for one minute each in ice-cold Tris-HCl followed by one rinse for 1 minute in ice-cold distilled water. Sections were then dried overnight at 4 deg C. and apposed to [3H] sensitive film for 2 weeks, and then developed to produce autoradiograms.

IGF-1 receptor = IGF-1 receptor (Homo sapiens, UniProt P08069); settings: cited from earlier work
Chain of IGF-1 receptor (P08069 31-736 limits assumed): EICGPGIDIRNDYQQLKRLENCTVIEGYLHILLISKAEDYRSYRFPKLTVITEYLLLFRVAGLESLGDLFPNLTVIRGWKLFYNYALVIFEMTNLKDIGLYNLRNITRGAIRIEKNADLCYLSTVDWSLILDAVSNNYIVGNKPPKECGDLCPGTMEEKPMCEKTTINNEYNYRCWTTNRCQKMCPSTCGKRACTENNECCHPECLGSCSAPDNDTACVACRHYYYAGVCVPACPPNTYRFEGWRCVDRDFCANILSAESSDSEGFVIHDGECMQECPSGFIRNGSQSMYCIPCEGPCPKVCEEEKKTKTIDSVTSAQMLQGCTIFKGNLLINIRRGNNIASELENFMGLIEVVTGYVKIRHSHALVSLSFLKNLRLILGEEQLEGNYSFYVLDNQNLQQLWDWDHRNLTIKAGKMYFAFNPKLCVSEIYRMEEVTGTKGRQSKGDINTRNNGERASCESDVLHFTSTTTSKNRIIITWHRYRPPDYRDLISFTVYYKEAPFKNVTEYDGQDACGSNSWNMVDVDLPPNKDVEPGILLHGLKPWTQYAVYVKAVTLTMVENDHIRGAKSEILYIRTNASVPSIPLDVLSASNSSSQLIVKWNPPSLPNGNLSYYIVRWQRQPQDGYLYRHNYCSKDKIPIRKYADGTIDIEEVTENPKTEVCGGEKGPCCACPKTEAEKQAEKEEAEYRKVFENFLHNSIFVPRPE
Chain of IGF-1 receptor (P08069 741-1367 partner limits assumed): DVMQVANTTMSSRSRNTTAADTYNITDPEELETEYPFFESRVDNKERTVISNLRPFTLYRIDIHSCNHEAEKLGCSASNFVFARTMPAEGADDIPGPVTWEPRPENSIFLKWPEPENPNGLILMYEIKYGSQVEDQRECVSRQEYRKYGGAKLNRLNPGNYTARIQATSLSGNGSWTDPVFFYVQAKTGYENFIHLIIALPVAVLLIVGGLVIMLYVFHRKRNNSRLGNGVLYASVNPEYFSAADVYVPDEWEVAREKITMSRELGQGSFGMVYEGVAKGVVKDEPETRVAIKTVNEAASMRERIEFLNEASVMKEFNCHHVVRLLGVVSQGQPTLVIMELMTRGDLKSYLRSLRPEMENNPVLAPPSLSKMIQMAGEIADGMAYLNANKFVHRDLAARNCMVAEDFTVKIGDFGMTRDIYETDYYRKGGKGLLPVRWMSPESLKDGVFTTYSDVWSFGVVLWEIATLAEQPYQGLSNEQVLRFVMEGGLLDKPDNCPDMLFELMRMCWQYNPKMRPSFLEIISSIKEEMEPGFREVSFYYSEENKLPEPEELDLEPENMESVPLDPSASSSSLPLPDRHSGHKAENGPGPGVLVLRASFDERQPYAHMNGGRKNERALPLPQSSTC

[2] = tested on: hypoxic-ischemic brain injury; assay: Hypoxic-ischemic brain injury in adult rats, central GPE (Experiment 3); type: in vivo, Wistar rats
Protocol: The objective of this study was to compare the effects of treatment with GPE to that of vehicle given 2 hours after a hypoxic-ischemic brain injury.
Unilateral hypoxic-ischemic injury was induced in adult 300±10 g) male Wistar rats. The rats underwent unilateral carotid ligation under light halothane anaesthesia. Following one hour recovery they were placed in an incubator at 34C at 85±5% humidity for one hour before injury. They were subjected to 10 min inhalational asphyxia (FiO2 6.0%) and maintained in the incubator for one hour after asphyxia. Two hours after the termination of the inhalation injury, a single stereotaxically controlled lateral cerebroventricular injection of either 3 μGPE (n=15) or phosphate buffered saline alone (n=15) was given. The animals were then maintained for 120 hrs, anaesthetized and the brains fixed in situ for histological assessment.
Surviving and dead neurons were discriminated with the use of a thionin/acid fuchsin staining technique [C. Williams, A. Gunn, C. Mallard, P. Gluckman Ped Res. (1990). A. Brown, J. Brierley, J. Neurol Sci, 16:59-84 (1971)]. The results are shown in FIG. 3; using a scoring technique. […] Similar to our previous study with IGF-1 the incidence of cortical infarction was lower following GPE treatment at 27% compared to the control/vehicle treated rats at 53% (Guan et al J Cereb Blood Flow Metab. 13:609-616 (1993)).
(The incidence of hippocampal damage was reduced following treatment with 3 μg GPE. The asterisk indicates a probability of under <0.05.
For this figure the columns A and B indicate the proportional loss of area (which can be extrapolated to indicate volume using the well-known principles of stereology) between the left and rights sides of the cortex of the brain, for either a control vehicle or 3 μG of GPE. Volumes were measured using computer-aided image analysis techniques. […] Neurones were counted after staining, with the aid of a microscope. […] Thus a single central injection of GPE following an asphyxial injury in the adult rat was associated with a marked improvement in outcome as assessed histologically.

[3] = tested on: dopamine neurons in the pars compacta region of the substantia nigra; assay: 6-OHDA lesion, count of TH immunopositive neurons in substantia nigra (Experiments 4 and 5); type: in vivo, Wistar rats
Protocol: This experiment was blind with respect to the treatment (with GPE or the vehicle) and with respect to the counting of neurons expressing TH (between sections from animals treated with GPE or vehicle).
The objective of this experiment was to determine the effects of administering GPE on the expression of tyrosine hydroxylase (TH) in the presence or absence of CNS injury. […] Specifically, 9 pairs of adult male Wistar rats (280-320 g) were prepared under 3% halothane/O2 anaesthesia. The oxygen free radical producing neurotoxin 6-hydroxydopamine (6-OHDA) which produces degeneration of dopamine neurones (8 μg/2 μl) was injected into the median forebrain bundle using a 30 gauge needle (coordinates: anterior-posterior +4.7 mm, right +1.6 mm, vertical -8.5 mm). A guide cannula was placed on the dura 7.5 mm anterior from stereotaxic zero and 1.5 mm from the midline on the right. The rats were left to recover at room temperature. […]
The total counts of neurons were compared between the GPE and the vehicle treated group. Data were analysed with paired t-test and presented as mean ±sem.
Experiment 5 was performed using a second set of rats (9 pairs) using the same experimental parameters except that only the immunopositive neurons at 2 levels of the substantia nigra were counted.

Compound: NCC(=O)N1CCC[C@H]1C(=O)N[C@@H](CCC(=O)O)C(=O)O [GPE, gly-pro-glu]
- [3H]-GPE binding in hippocampus [1]: left hippocampus has bound the radioactive material
- binding to the IGF-1 receptor (IGF-1 receptor): does not
- incidence of hippocampal damage in the ligated hemisphere ([2]; 3 μg GPE 2 hours after hypoxia, p<0.05 vs vehicle): reduced the incidence of hippocampal damage
- incidence of cortical infarction ([2]; 3 μg GPE lateral cerebroventricular injection 2 hours after injury, 120 hrs, vehicle 53%): 27%
- number of damaged cells (FIG. 4, cortex area and live hippocampal neurones R/L) ([2]; 3 μg GPE, single central injection, p 0.04): significant reduction in the number of damaged cells
- protection of dopaminergic neurons against 6-OHDA (TH expression in SNc) ([3]; Experiments 4 and 5): provided protection
- number of TH immunopositive dopamine neurons ([3]; lesioned (right) side, 3 μg GPE 2 hours after 6-OHDA, 14 days, Experiment 4): increased
